Experimental data from patent publication US7964556B1, “Antimicrobial peptides and use thereof” (Toagosei Co., Ltd, priority 2004, dated 2011).
Like-named read-outs stand apart in the source and are kept apart here. Where a SMILES comes first, the peptide text is derived from it.

Legend:
Format in all cases: cell-based
S. aureus = system: S. aureus
Procedure: Next, the antimicrobial activities (MIC) against gram-positive bacteria (S. aureus) in the presence of serum and high concentration of cation were tested with the same method as Example 2. However, only the above-described sample 9 was used as the test peptide. Specifically, a drug (synthesized peptide of sample 9) solution having a concentration of 40 times of the highest test concentration was prepared using sterile distilled water. Thereafter, MHB mediums (“Mueller Hinton Broth” manufactured by DIFCO) including high concentration of cation with peptide concentrations of 50, 25, 12.5, 6.25, 3.13, 1.56 and 0.78 μM were produced respectively. The cation included was prepared as follows: dissolving 3.68 g of CaCl2.2H2O in 100 mL of purified water (10 mg.Ca^2+/mL), and thereafter adding 500 μL thereof into 100 mL of Mueller Hinton Broth; and dissolving 8.36 g of MgCl2.6H2O in 100 mL of purified water (10 mg.Mg^2+/mL), and thereafter adding 250 μL thereof into 100 mL of Mueller Hinton Broth.
Mediums (hereinafter “MHB serum mediums including high concentration of cation”) were further prepared by adding horse serum (mechanically sterilized Nippon Biotest Laboratories inc. product), which made up of 10% volume ratio of the entire medium, into the MHB mediums including high concentration of cation. The MHB serum mediums including high concentration of cation had peptide concentrations of 50, 25, 12.5, 6.25, 3.13, 1.56 and 0.78 μM.
Next, the above-described MHB mediums including high concentration of cation and having peptide of each concentration, and the above-described MHB serum mediums including high concentration of cation and having peptide of each concentration were fed to the 96-well microplate at 100 μL a time, and the MIC were determined using the same method as example 2. As comparison, commercially available MHB mediums having peptide concentration of 50, 25, 12.5, 6.25, 3.13, 1.56 and 0.78 μM were used.

sheep's erythrocytes = system: sheep's erythrocytes
Procedure: A test on the hemolytic activity of 2 kinds of synthesized peptides (sample 9 and sample 10) in example 1 was performed and served as indicator of the effects of these peptides on animal cell (erythrocyte). The hemolytic activity test in the present example was performed as follows. Specifically, sample peptides were dissolved in PBS (pH7.4), and thereafter 10 stages of twice diluted strains (sample solutions) with peptide concentration of 400, 200, 100, 50, 25, 12.5, 6.25, 3.13, 1.56 and 0.78 μM were prepared. Here, PBS was used as a control of 0% hemolysis, and PBS containing 0.1% of triton X-100 was used as a control of 100% hemolysis. Erythrocyte of fiber-free sheep's blood was then added to these sample solutions such that the volume ratio (v/v) was 1% of these sample solutions. After adding the above-described red blood cells, the sample solutions were incubated for 1 hour at 37° C., and thereafter the hemolysis was ceased with cold water. Next, centrifugal separation at 3000 rpm was performed for […] at 4° C.
After centrifugal separation, each supernatant was fed to the 96-well microplate, and absorbency under 540 nm wavelength was determined. The hemolytic rate (%) was then calculated by the following formula based on the results determined: {(Aexp−A0)/A100}×100. […]

Escherichia coli = system: Escherichia coli
Procedure: (§1) Regarding the antimicrobial peptide in samples 1 to 14 and the comparative sample 1, the antimicrobial activities (minimum inhibitory concentration: MIC) with respect to gram-negative bacteria (Escherichia coli) and gram-positive bacteria (Staphylococcus aureus) were determined, as described below, by a liquid medium dilution technique using a 96-well microplate. First, a drug (synthesized peptide) solution having a concentration of 40 times of the highest test concentration was prepared using sterile distilled water, and thereafter liquid-bouillon mediums (“NUTRIENT BROTH Dehydrated” manufactured by DIFCO) having peptide concentrations of 200, 100, 50, 25, 12.5, 6.25, 3.13, 1.56 and 0.78 μM were produced respectively. The produced liquid-bouillon mediums including the peptide of each concentration were then fed to the 96-well microplate at 100 μL a time.
(§2) At the same time, test bacteria cultured for 18 hours at 37° C. on an agar plate (“Muller Hinton Agar” manufactured by DIFCO) were gathered by scratching with a loop, and then suspended in a sterilized physiological saline. Bacterial suspension 5 μL prepared at an equivalent of 2×10^7 cells/mL was respectively inoculated (number of bacteria to be tested: approximately 1×10^6 cells/mL) onto the above-described liquid-bouillon mediums including the peptide of each concentration and fed to each well of the above-described microplate. After inoculation, the microplate was then incubated in an incubator at 37° C., and the presence of bacteria was evaluated based on the turbidity 24 hours later. The minimum drug concentration (peptide concentration), in which an increased in turbidity caused by bacteria was not detected at the time of measurement, was defined as MIC (minimum inhibitory concentration) (unit: μM) in the present embodiment.

Staphylococcus aureus = conditions: for antimicrobial activities against gram-positive bacteria (S. aureus), in words: summary of Table 2
Procedure: as §1, §2

[1] = liquid-bouillon medium (Nutrient Broth), 37° C., turbidity after 24 hours

Antimicrobial Activities (MIC) against S. aureus, MHB (S. aureus) | Antimicrobial Activities (MIC) against S. aureus, MHB + Cation (S. aureus) | Antimicrobial Activities (MIC) against S. aureus, MHB + Cation + Horse Serum (S. aureus) | Antimicrobial Activities (MIC) E. coli (Escherichia coli; 24 h) | Antimicrobial Activities (MIC) S. aureus (Staphylococcus aureus; 24 h) | Structure (SMILES) | hemolytic activities, in words (sheep's erythrocytes) | antimicrobial activities against gram-positive bacteria (S. aureus), in words (Staphylococcus aureus) | Antimicrobial Activities (MIC) E. coli (Escherichia coli; [1]) | Antimicrobial Activities (MIC) S. aureus (Staphylococcus aureus; [1])
3.13 µM | 3.13 µM | 3.13 µM | 3.13 µM | 0.78 µM | CC[C@H](C)[C@H](NC(=O)[C@H](CCC(N)=O)NC(=O)[C@@H](NC(=O)[C@H](CCCCN)NC(=O)[C@@H](NC(=O)[C@H](CCCCN)NC(=O)[C@H](CCCNC(=N)N)NC(=O)[C@H](CCCCN)NC(=O)[C@H](CCCCN)NC(=O)[C@H](CCCCN)NC(=O)[C@@H](N)CCCNC(=N)N)C(C)C)C(C)C)C(=O)N[C@H](C(=O)N[C@@H](CC(N)=O)C(=O)N[C@@H](CCCCN)C(=O)N[C@@H](CCCCN)C(N)=O)[C@@H](C)CC [Sample 9, RKKKRKVKVQIINKK] (H-RKKKRKVKVQIINKK-NH2) | significantly low | particularly high antimicrobial activities | – | –
– | – | – | 12.5 µM | 3.13 µM | CC(C)[C@H](NC(=O)[C@H](C)NC(=O)[C@@H](NC(=O)[C@H](CCCCN)NC(=O)[C@H](CCCCN)NC(=O)[C@@H](NC(=O)[C@H](CCCCN)NC(=O)[C@H](CCCNC(=N)N)NC(=O)[C@H](CCCCN)NC(=O)[C@H](CCCCN)NC(=O)[C@H](CCCCN)NC(=O)[C@@H](N)CCCNC(=N)N)C(C)C)C(C)C)C(=O)N[C@H](C(=O)N[C@@H](CCCNC(=N)N)C(=O)N[C@H](C(N)=O)[C@@H](C)O)C(C)C [Sample 10, RKKKRKVKKVAVVRT] (H-RKKKRKVKKVAVVRT-NH2) | significantly low | particularly high antimicrobial activities | – | –
– | – | – | – | – | CC[C@H](C)[C@H](NC(=O)[C@H](CCC(N)=O)NC(=O)[C@@H](NC(=O)[C@H](CCCCN)NC(=O)[C@@H](NC(=O)[C@@H](NC(=O)[C@@H](NC(=O)[C@H](CCCNC(=N)N)NC(=O)[C@H](CCCCN)NC(=O)[C@H](CCCCN)NC(=O)[C@H](CCCNC(=N)N)NC(=O)[C@@H]1CCCN1C(=O)[C@@H]1CCCN1)[C@@H](C)O)C(C)C)C(C)C)C(C)C)C(=O)N[C@H](C(=O)N[C@@H](CC(N)=O)C(=O)N[C@@H](CCCCN)C(=O)N[C@@H](CCCCN)C(N)=O)[C@@H](C)CC [Sample 13, PPRKKRTVVKVQIINKK] (H-PPRKKRTVVKVQIINKK-NH2) | – | particularly high antimicrobial activities | 3.13 µM | 0.78 µM
– | – | – | 50 µM | 25 µM | CC[C@H](C)[C@H](NC(=O)[C@H](CCC(N)=O)NC(=O)[C@@H](NC(=O)[C@H](CCCCN)NC(=O)[C@H](Cc1ccc(O)cc1)NC(=O)[C@@H](NC(=O)[C@@H](NC(=O)[C@H](CCC(N)=O)NC(=O)[C@@H](N)C(C)C)[C@@H](C)CC)C(C)C)C(C)C)C(=O)N[C@H](C(=O)N[C@@H](Cc1ccc(O)cc1)C(=O)N[C@@H](CCCCN)C(N)=O)C(C)C [Sample 14, VQIVYKVQIVYK] (H-VQIVYKVQIVYK-NH2) | – | particularly high antimicrobial activities | – | –
